Patent publication EP2832344A1, “COMPOSITION, AND EXTERNAL PREPARATION FOR THE SKIN OR FUNCTIONAL FOOD EACH CONTAINING SAID COMPOSITION” (FUJI-FILM Corporation, priority 2012, dated 2013)

How the values were obtained:
[1] = Storage stability of hydroxystilbenes (residual amount by HPLC); assay type: physicochemical; conditions: for remaining at 1032 h: pH 8, left 43 days at room temperature, sample with PEG-60 hydrogenated castor oil in citric acid buffer solution, HPLC
Description: Various hydroxystilbenes shown in the following Table 1 were dissolved in ethanol, thereby preparing a 1% solution. The solution was stirred together with PEG-60 hydrogenated castor oil which was in an amount 10 times the amount of the solution with respect to 1 part of the ethanol solution. Thereafter, the resultant was diluted by 100-fold with a citric acid buffer solution, thereby preparing a sample.
pH of the sample prepared as above was regulated to be 8, and the sample was left as is for a month and a half (43 days) at room temperature. Thereafter, by means of HPLC, a residual amount of various hydroxystilbenes in each sample was determined. Analysis conditions for HPLC are as follows.
• Column: C18 5 µm, 4.6 mm x 250 mm • Flow rate: 1 ml/min • Column temperature: 40°C • Detection wavelength: 310 nm • Developing solution: acetonitrile/water = 20/80 (volume ratio, containing 0.1% by volume of acetic acid and 0.1% by volume of triethanolamine) [Table 1]

NF-κB = NF-κB intranuclear transition in UVB-irradiated dermal fibroblasts (Western blotting); assay type: cell-based; conditions: Homo sapiens, light or radiation study; HDF cells, UVB (20 mJ) irradiated, 6 hours; pterostilbene 5 ppm, no carotenoid; not irradiated = 100 %, irradiated without additive = 684%; read-out: Ratio of amount of NF-κB moving into nucleus
Source text: NFκB is considered to be involved in skin aging at an early stage. Therefore, an NFκB intranuclear transition inhibition rate of carotenoid and pterostilbene was examined.
Normal human dermal fibroblasts (HDF cells, KURABO INDUSTRIES LTD.) were subcultured three times according to a common method, in a GlutaMax medium (D-MEM, Gibco) supplemented with 10% fetal bovine serum (FBS, Gibco). The subcultured HDF cells were caused to adhere to a container at 1,000,000 cells/25 cm^2 and put in a serum starvation state for a day. Thereafter, the HDF cells were washed with phosphate buffered saline (PBS).
The cells were irradiated with UVB (20 mJ) emitted from right above the cells, and then the medium was replaced with a medium obtained by adding 0.1% FBS to D-MEM containing the carotenoid and the pterostilbene shown in Tables 6 and 7.
6 hours after the replacement of the medium, nuclei were extracted using NucBuster (Novagen), and the amount of NF-κB moved into the nuclei was determined by Western blotting (WB) (primary antibody: NF-κB p65 Rabbit Monoclonal Antibody (Cat. #1546-1), EPITOMICS).
Moreover, in Experiment 1 and Experiment 7, for comparison, the cells were not irradiated with UVB.

SMILES	remaining at 1032 h [1] [%]	Residual amount (%) ([1]; citric acid buffer, 1032 h, pH 8)	activity at 5 ppm (NF-κB) [%]
COc1cc(/C=C/c2ccc(O)cc2)cc(OC)c1 [Pterostilbene, trans-1-(3,5-Diemthoxyphenyl)-2-(4-hydroxyphenyl)ethylene]	99		420
Oc1ccc(C=Cc2cc(O)cc(O)c2)cc1 [Resveratrol]	54		
O=C(O)C1OC(Oc2ccc(C=Cc3cc(O)cc(O)c3)cc2)C(O)C(O)C1O [trans-resveratol 4'-O-beta-D-glucuronide]		73	

Second part, led by results:

remaining at 1032 h [1] [%]	Residual amount (%) ([1]; citric acid buffer, 1032 h, pH 8)	SMILES	activity at 5 ppm (NF-κB) [%]
46		COc1cc(/C=C/c2cc(O)cc(O)c2)ccc1O [(E)-3,4',5-trihydroxy-3'-methoxystilbene]	
26		Oc1cc(O)cc(/C=C/c2ccc(O)c(O)c2)c1 [Piceatannol]	
